According to article PMC5671890 (Journal of molecular medicine (Berlin, Germany), 2017):
≈ marks a conversion by molar mass, not a printed value. Structures can show the parent of a compound that is named as a salt. Positions of bridges follow the written chain, without caps; N, C: chain ends. Non-standard residues stand in square brackets, D forms with d. Residues, ends and D or L forms follow the SMILES beside them. *: point of attachment. X1 = CC[C@H](C)CCCCC(=O)*; Dab = NCC[C@H](N)C(=O)O

What was measured:
Type in all cases: cell-based
Conditions in all cases: cation-adjusted Mueller Hinton broth, serial 2-fold dilutions, repeated 3 times
[1] = tested on: Pseudomonas aeruginosa PAO1 Wt
[2] = tested on: Pseudomonas aeruginosa PAO1 vacJ− mutant
[3] = tested on: Pseudomonas aeruginosa PAO1 vacJ−:vacJ complemented strain

| Structure (SMILES) | MIC [1] | MIC [2] | MIC [3] |
| --- | --- | --- | --- |
| CC[C@H](C)CCCCC(=O)N[C@@H](CCN)C(=O)N[C@H](C(=O)N[C@@H](CCN)C(=O)N[C@H]1CCNC(=O)[C@H]([C@@H](C)O)NC(=O)[C@H](CCN)NC(=O)[C@H](CCN)NC(=O)[C@H](CC(C)C)NC(=O)[C@@H](CC(C)C)NC(=O)[C@H](CCN)NC1=O)[C@@H](C)O [Colistin, colistin sulfate] (X1-[Dab]T[Dab][Dab][Dab][dL]L[Dab][Dab]T; lactam 4-C (inferred); N-terminus assumed) | 1 µg/mL | 0.5 µg/mL | 1 µg/mL |
| CC[C@H](C)CCCCC(=O)N[C@@H](CCN)C(=O)N[C@H](C(=O)N[C@@H](CCN)C(=O)N[C@H]1CCNC(=O)[C@H]([C@@H](C)O)NC(=O)[C@H](CCN)NC(=O)[C@H](CCN)NC(=O)[C@H](CC(C)C)NC(=O)[C@@H](Cc2ccccc2)NC(=O)[C@H](CCN)NC1=O)[C@@H](C)O [Polymyxin B] (X1-[Dab]T[Dab][Dab][Dab][dF]L[Dab][Dab]T; lactam 4-C (inferred); N-terminus assumed) | 0.5 µg/mL (≈ 0.415 µM) | 0.25 µg/mL (≈ 0.208 µM) | 0.5 µg/mL (≈ 0.415 µM) |
